One may read the IC50 as the concentration that gives 50% inhibition.

The source of these data is patent US11986471B2, “Compounds and methods of use” (Tango Therapeutics, Inc., priority 2018, dated 2024).

For assay [1], the system named is HAP1 MTAP-deleted. In words: SDMA in-cell western assay, HAP1 MTAP-deleted cell line. It is filed as cell-based. The note with it: for IC50: Homo sapiens, HAP1 MTAP-deleted cell line; for MTAP Intact/Deleted Ratio: IC50 ratio HAP1 MTAP-intact / HAP1 MTAP-deleted. The text has this:
Table 1a also indicates IC50 values in an MTAP-isogenic cell line pair for exemplary compounds in an SDMA in-cell western assay (columns 7-8). HAP1 MTAP-intact is a cell line in which endogenous levels of MTAP are expressed, and HAP1 MTAP-deleted is an MTAP-null cell line.

Assay [2] has as its target T1, PRMT5 (Homo sapiens, UniProt O14744).
T1 construct: purchased Viva (custom protein)
Briefly: PRMT5 IC50 assay in the presence of SAM as cofactor. It is filed as biochemical. A digest of the protocol: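 Ki conversion: SAM arm, Ki=IC50/1.5; MTA arm, Ki=IC50/13.5. No-cofactor arm reported as IC50 only. Selectivity expressed as Ki(SAM)/Ki(MTA).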

Assay [3] relates to HAP1 MTAP-intact. In words: SDMA in-cell western assay, HAP1 MTAP-intact cell line. It is filed as cell-based. The settings on record: Homo sapiens. The text has this:
Table 1a also indicates IC50 values in an MTAP-isogenic cell line pair for exemplary compounds in an SDMA in-cell western assay (columns 7-8). HAP1 MTAP-intact is a cell line in which endogenous levels of MTAP are expressed, and HAP1 MTAP-deleted is an MTAP-null cell line. […] Compounds with a ratio in the SDMA in-cell western assay of equal to or greater than 3 fold are considered MTAP-selective.

In assay [4] the target is T1, PRMT5. Briefly: PRMT5 IC50 assay in the presence of MTA as cofactor. The note with it: for IC50: PRMT5, MTA as cofactor. It is filed as biochemical. A digest of the protocol:
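Three cofactor conditions are run: SAM-bound, MTA-bound and cofactor-free enzyme. IC50 is read from each; for the SAM and MTA arms it is divided by 1.5 and 13.5 respectively to give Ki.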

The target of assay [5] is T1, PRMT5. Briefly: PRMT5 IC50 assay with no cofactor. It is filed as biochemical. The method, boiled down: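 Potency against PRMT5 is compared across cofactor states, where IC50 equals Ki×1.5 with SAM present and Ki×13.5 with MTA present.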
[6] abbreviates: ratio between the Ki in the presence of SAM and the Ki in the presence of MTA.
[7] abbreviates: ratio between Ki in the presence of SAM and Ki in the presence of MTA.

The structures appear in SMILES notation.

T1 sequence (O14744 whole entry): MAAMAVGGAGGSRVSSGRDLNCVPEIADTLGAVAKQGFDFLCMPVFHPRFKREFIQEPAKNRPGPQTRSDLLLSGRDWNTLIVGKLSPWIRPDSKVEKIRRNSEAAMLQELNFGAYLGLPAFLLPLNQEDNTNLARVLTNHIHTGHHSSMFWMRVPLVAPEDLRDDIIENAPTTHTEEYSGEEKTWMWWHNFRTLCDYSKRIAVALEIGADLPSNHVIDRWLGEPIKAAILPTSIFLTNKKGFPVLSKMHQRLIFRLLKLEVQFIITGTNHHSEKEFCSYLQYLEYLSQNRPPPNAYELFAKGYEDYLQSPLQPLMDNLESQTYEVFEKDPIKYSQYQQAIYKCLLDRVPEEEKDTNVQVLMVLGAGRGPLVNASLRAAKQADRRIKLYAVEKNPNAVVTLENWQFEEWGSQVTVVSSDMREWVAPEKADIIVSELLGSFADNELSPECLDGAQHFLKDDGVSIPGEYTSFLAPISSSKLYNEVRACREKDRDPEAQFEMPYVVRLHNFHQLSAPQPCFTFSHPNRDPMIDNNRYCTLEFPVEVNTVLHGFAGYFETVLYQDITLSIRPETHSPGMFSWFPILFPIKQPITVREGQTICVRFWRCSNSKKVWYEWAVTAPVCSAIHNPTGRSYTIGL
T1 sequence (Q9BQA1 whole entry partner): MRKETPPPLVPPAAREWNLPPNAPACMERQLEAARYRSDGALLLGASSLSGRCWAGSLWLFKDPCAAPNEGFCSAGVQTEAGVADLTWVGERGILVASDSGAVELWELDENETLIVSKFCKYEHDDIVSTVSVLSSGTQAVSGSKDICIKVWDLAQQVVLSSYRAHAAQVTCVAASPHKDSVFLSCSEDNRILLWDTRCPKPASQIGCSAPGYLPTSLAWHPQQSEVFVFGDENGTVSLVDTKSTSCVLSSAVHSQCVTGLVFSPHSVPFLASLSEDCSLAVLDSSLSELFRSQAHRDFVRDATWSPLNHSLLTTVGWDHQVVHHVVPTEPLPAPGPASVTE

As to `CC(C)C(=O)N1CCN(c2cc(C(=O)NC[C@H](O)CN3CCc4c(ccc(OCc5cnco5)c4Cl)C3)cc(NC3CCC3)n2)CC1` [Compound 466], the IC50 in assay [1] was less than 1000 nM; in assay [2], 50 to 500 nM; in assay [3], less than 1000 nM; in assay [4], 50 to 500 nM; in assay [5] it was 500 to 5000 nM. Also, in assay [1], the “MTAP Intact/Deleted Ratio” value is “C* (an IC50 ratio of less than 3 fold between the IC50 in the HAP1 MTAP-intact cell line and the HAP1 MTAP-deleted cell line)”. Further, the “SAM/MTA Ratio” value in assay [4] (setting [6]) was “A (a Ki ratio greater than or equal to 10 fold between the Ki in the presence of SAM and the Ki in the presence of MTA)”.

On to `COCCN(C)c1nc(NC2COC2)cc(C(=O)NC[C@H](O)CN2CCc3c(ccc(OCc4ocnc4C)c3C)C2)n1` [Compound 398, N-[(2S)-2-hydroxy-3-{5-methyl-6-[(4-methyl-1,3-oxazol-5-yl)methoxy]-1,2,3,4-tetrahydroisoquinolin-2-yl}propyl]-2-[(2-methoxyethyl)(methyl)amino]-6-[(oxetan-3-yl)amino]pyrimidine-4-carboxamide], for which the IC50 in assay [1] is 1000 to 10000 nM; in assay [2], 50 to 500 nM; in assay [3], not below 10000 nM; in assay [4], 50 to 500 nM; in assay [5] (read-out: No Co-factor IC50), not below 5000 nM. Further, the “MTAP Intact/Deleted Ratio” value in assay [1] is “B* (an IC50 ratio greater than or equal to 3 fold but lower than 10 fold between the IC50 in the HAP1 MTAP-intact cell line and the HAP1 MTAP-deleted cell line)”. Further, in assay [4] (setting [7]), the “SAM/MTA Ratio” value was “A (a Ki ratio greater than or equal to 10 fold between the Ki in the presence of SAM and the Ki in the presence of MTA)”.

For `O=C(NC[C@H](O)CN1CCc2cc(OCc3cnco3)ccc2C1)c1cc(NC2CCC2)ncc1F` [Compound 334, (S)-2-(cyclobutylamino)-5-fluoro-N-(2-hydroxy-3-(6-(oxazol-5-ylmethoxy)-3A-dihydroisoquinolin-2(1H)-yl)propyl)isonicotinamide], the IC50 is less than 1000 nM in assay [1]; 500 to 5000 nM in assay [2]; less than 1000 nM in assay [3]; 50 to 500 nM in assay [4]; not below 5000 nM in assay [5] (read-out: No Co-factor IC50). Moreover, the “MTAP Intact/Deleted Ratio” value in assay [1] is “C* (an IC50 ratio of less than 3 fold between the IC50 in the HAP1 MTAP-intact cell line and the HAP1 MTAP-deleted cell line)”. Also, the “SAM/MTA Ratio” value in assay [4] (setting [7]) is “A (a Ki ratio greater than or equal to 10 fold between the Ki in the presence of SAM and the Ki in the presence of MTA)”.

On to `Cc1ncoc1COc1ccc2c(c1)CCN(C[C@@H](O)CNC(=O)c1cc(NC3CCC3)nc(N3CCOCC3)c1)C2` [Compound 384, 2-(cyclobutylamino)-N-[(2S)-2-hydroxy-3-{6-[(4-methyl-1,3-oxazol-5-yl)methoxy]-1,2,3,4-tetrahydroisoquinolin-2-yl}propyl]-6-(morpholin-4-yl)pyridine-4-carboxamide], for which the IC50 in assay [1] was less than 1000 nM; in assay [2], 50 to 500 nM; in assay [3], less than 1000 nM; in assay [4] it was 50 to 500 nM; in assay [5] (read-out: No Co-factor IC50), 500 to 5000 nM. The “MTAP Intact/Deleted Ratio” value in assay [1] is “B* (an IC50 ratio greater than or equal to 3 fold but lower than 10 fold between the IC50 in the HAP1 MTAP-intact cell line and the HAP1 MTAP-deleted cell line)”. In addition, the “SAM/MTA Ratio” value in assay [4] (setting [7]) was “A (a Ki ratio greater than or equal to 10 fold between the Ki in the presence of SAM and the Ki in the presence of MTA)”.

For the compound `Cc1ncoc1COc1ccc2c(c1)CCN(C[C@@H](O)CNC(=O)c1cc(Nc3cccnc3)nc(N3CCCCC3)c1)C2` [Compound 601], the IC50 in assay [1] was less than 1000 nM; in assay [2] it was 50 to 500 nM; in assay [3], less than 1000 nM; in assay [4], less than 50 nM; in assay [5] it was 500 to 5000 nM. Besides, the “MTAP Intact/Deleted Ratio” value in assay [1] was “B* (an IC50 ratio greater than or equal to 3 fold but lower than 10 fold between the IC50 in the HAP1 MTAP-intact cell line and the HAP1 MTAP-deleted cell line)”. Also, the “SAM/MTA Ratio” value in assay [4] (setting [6]) was “A (a Ki ratio greater than or equal to 10 fold between the Ki in the presence of SAM and the Ki in the presence of MTA)”.

As for `Cc1c(OCc2cnco2)ccc2c1CCN(C[C@@H](O)CNC(=O)c1ccnc(NC3CCN(C(=O)CC(C)C)CC3)c1)C2` [Compound 447, (S)—N-(2-hydroxy-3-(5-methyl-6-(oxazol-5-ylmethoxy)-3N-dihydroisoquinolin-2(1H)-yl)propyl)-2-((1-(3-methylbutanoyl)piperidin-4-yl)amino)isonicotinamide], the IC50 in assay [1] was less than 1000 nM; in assay [2], 50 to 500 nM; in assay [3], not below 10000 nM; in assay [4], 50 to 500 nM; in assay [5], 500 to 5000 nM. In addition, in assay [1], the “MTAP Intact/Deleted Ratio” value was “A* (an IC50 ratio greater than or equal to 10 fold between the IC50 in the HAP1 MTAP-intact cell line and the HAP1 MTAP-deleted cell line)”. In addition, the “SAM/MTA Ratio” value in assay [4] (setting [6]) was “A (a Ki ratio greater than or equal to 10 fold between the Ki in the presence of SAM and the Ki in the presence of MTA)”.

On to `CC(=O)N1CCC(Nc2cc(C(=O)NC[C@H](O)CN3CCc4c(ccc(OCc5cnn[nH]5)c4Cl)C3)ncn2)CC1` [Compound 343, 6-[(1-acetyl-4-piperidyl)amino]-N-[(2S)-3-[5-chloro-6-(1H-triazol-5-ylmethoxy)-3,4-dihydro-1H-isoquinolin-2-yl]-2-hydroxy-propyl]pyrimidine-4-carboxamide], for which the IC50 in assay [1] is 1000 to 10000 nM; in assay [2] it was 500 to 5000 nM; in assay [3], not below 10000 nM; in assay [4], 500 to 5000 nM; in assay [5] (read-out: No Co-factor IC50), not below 5000 nM. Moreover, the “MTAP Intact/Deleted Ratio” value in assay [1] was “C* (an IC50 ratio of less than 3 fold between the IC50 in the HAP1 MTAP-intact cell line and the HAP1 MTAP-deleted cell line)”. Besides, in assay [4] (setting [7]), the “SAM/MTA Ratio” value was “A (a Ki ratio greater than or equal to 10 fold between the Ki in the presence of SAM and the Ki in the presence of MTA)”.

Consider `CC(=O)N1CCN(c2cc(C(=O)NC[C@H](O)CN3CCc4c(ccc(OCc5ocnc5C)c4C)C3)cc(NC3CCC3)n2)CC1` [Compound 502, 2-(4-acetylpiperazin-1-yl)-6-(cyclobutylamino)-N-[(2S)-2-hydroxy-3-{5-methyl-6-[(4-methyl-1,3-oxazol-5-yl)methoxy]-1,2,3,4-tetrahydroisoquinolin-2-yl}propyl]pyridine-4-carboxamide], for which the IC50 in assay [1] was less than 1000 nM; in assay [2], 50 to 500 nM; in assay [3] it was 1000 to 10000 nM; in assay [4], 50 to 500 nM; in assay [5], 500 to 5000 nM. The “MTAP Intact/Deleted Ratio” value in assay [1] is “A* (an IC50 ratio greater than or equal to 10 fold between the IC50 in the HAP1 MTAP-intact cell line and the HAP1 MTAP-deleted cell line)”. Also, the “SAM/MTA Ratio” value in assay [4] (setting [6]) was “A (a Ki ratio greater than or equal to 10 fold between the Ki in the presence of SAM and the Ki in the presence of MTA)”.

Take `CC(=O)N1CC[C@H](Nc2cc(C(=O)NC[C@H](O)CN3CCc4cc(OCc5ocnc5C)ccc4C3)ccn2)C[C@H]1C` [Compound 644, 2-(((2R,4S)-1-acetyl-2-methylpiperidin-4-yl)amino)-N—((S)-2-hydroxy-3-(6-((4-methyloxazol-5-yl)methoxy)-3,4-dihydroisoquinolin-2(1H)-yl)propyl)isonicotinamide]: the IC50 in assay [1] was less than 1000 nM; in assay [2] it was 50 to 500 nM; in assay [3], 1000 to 10000 nM; in assay [4] it was less than 50 nM; in assay [5] (read-out: No Co-factor IC50), 500 to 5000 nM. Also, in assay [1], the “MTAP Intact/Deleted Ratio” value was “A* (an IC50 ratio greater than or equal to 10 fold between the IC50 in the HAP1 MTAP-intact cell line and the HAP1 MTAP-deleted cell line)”. Further, the “SAM/MTA Ratio” value in assay [4] (setting [7]) was “A (a Ki ratio greater than or equal to 10 fold between the Ki in the presence of SAM and the Ki in the presence of MTA)”.
